Test results: paper PMC10539439 (Pharmacological Reports, 2023)

Assays:
[1] = Blood pressure, 24-h telemetric method, normotensive rats; assay type: in vivo, rat; details: telemetry, 5 mg/kg b.w., first 15 or 15 and 30 min after 1st, 7th and 14th administration, vs control
Method: The blood pressure of rats treated with the tested compound was measured for a 24 h period after ip treatment (5 mg/kg b.w.) with a special telemetric system Stellar (TSE-Systems, Germany).
Surgery: The operation was carried out over 30 min under sterile conditions. Rats were anaesthetized with ketamine and xylasine (intramuscular injection: 100 mg/kg and 10 mg/kg). Before surgery and for 7 days after, the animals were also treated with cefuroxime (20 mg/kg/day) via intramuscular injection and ketoprofen (5 mg/kg/day) via ip injection. […] The transmitter was sutured to the peritoneal cavity.
The rats were individually caged for 2 weeks to heal after surgical cut. The animals were then placed in pairs in cages to reduce their isolation stress. Blood pressure was measured: before ip administration of the compounds – time 0 min and 24 h thereafter.

[2] = Blood pressure of anaesthetized normotensive rats; assay type: in vivo, rat; details: thiopental-anaesthetized rats
Method: Eighteen normotensive rats were anaesthetized with thiopental (70 mg/kg) by ip injection. The left carotid artery was cannulated with tubing filled with heparin solution in saline to facilitate pressure measurements using Apparatus PowerLab 4/35 (ADInstruments, Australia). Blood pressure was measured: before ip administration of 4-OH-Guanabenz at the doses of 2 or 5 or 10 mg/kg b.w. or water – time 0 min (control pressure) and continuously during the next 60 min.

## Cl.N=C(N)NN=Cc1c(Cl)cc(O)cc1Cl [4-OH-Guanabenz, 2-[(2,6-Dichloro-4-hydroxyphenyl)methylene]hydrazinecarboximidamide Hydrochloride]
[1]
  effect on systolic and diastolic blood pressure (in words): significantly higher
[2]; 10 mg/kg b.w., 10th minute after administration
  effect on diastolic pressure (in words): short-term increase
[2]; single dose 2 or 5 mg/kg b.w., vs water
  effect on blood pressure (in words): not significantly different
